Measured values: patent US9040033B2, “Hydroxypropyl methyl cellulose acetate succinate with enhanced acetate and succinate substitution” (Dow Global Technologies LLC, priority 2010, dated 2015)

What was measured:
[1] = Microcentrifuge dissolution of 25 wt % phenytoin spray-dried dispersions in MFDS; format: physicochemical; settings: dissolved phenytoin; SDD or bulk in MFDS pH 6.5, 37° C.
Excerpt: In another separate embodiment, compositions containing the HPMCAS polymers are concentration enhancing. The term “concentration enhancing” means that the polymer is present in a sufficient amount in the composition so as to improve, or increase, the concentration of dissolved active agent in an aqueous use environment relative to a control composition free from the polymer. As used herein, a “use environment” can be either the in vivo environment of the gastrointestinal tract, subdermal, intranasal, buccal, intrathecal, ocular, intraaural, subcutaneous spaces, vaginal tract, arterial and venous blood vessels, pulmonary tract or intramuscular tissue of an animal, such as a mammal and particularly a human, or the in vitro environment of a test solution, such as phosphate buffered saline (PBS), simulated intestinal buffer without enzymes (SIN), a Model Fasted Duodenal (MFD) solution, or a solution to model the fed state. Concentration enhancement may be determined through either in vitro dissolution tests or through in vivo tests. It has been determined that enhanced active agent concentrations in in vitro dissolution tests in such in vitro test solutions provide good indicators of in vivo performance and bioavailability. An appropriate PBS solution is an aqueous solution comprising 20 mM sodium phosphate (Na2HPO4), 47 mM potassium phosphate (KH2PO4), 87 mM NaCl, and 0.2 mM KCl, adjusted to pH 6.5 with NaOH. An appropriate SIN solution is 50 mM KH2PO4 adjusted to pH 7.4. […] In particular, a composition may be dissolution-tested by adding it to an in vitro test solution and agitating to promote dissolution, or by performing a membrane-permeation test as described in U.S. Published Patent Application No. 2008/0262107, which is incorporated herein by reference. Spray-dried dispersions (SDDs) comprising 25 wt % phenyloin in HPMCAS-K(3), HPMCAS-K(1), HPMCAS-HG, and HPMCAS-LG were prepared as described in section VIII. […] Dissolved concentrations were measured by HPLC.

[2] = Phenytoin precipitation inhibition in PBS containing dissolved polymer; format: physicochemical; settings: PBS pH 6.5, 37° C., 500 μg/mL if all dissolved
Experimental: Phenyloin was dissolved in methanol at a concentration of 18 mg/mL. The polymers were dissolved in PBS (20 mM sodium phosphate (Na2HPO4), 47 mM potassium phosphate (KH2PO4), 87 mM NaCl, and 0.2 mM KCl, adjusted to pH 6.5 with NaOH) at a concentration of 1.5 mg/mL. […] HPLC was performed using a ZORBAX® RX-C18 column (4.6×75 mm, 3.5 μm, Agilent Technologies) and a mobile phase comprising 0.2% H3PO4 in water, at a flow rate of 1.0 mL/min; 10 μL of each solution was injected. […] HPMCAS-K(3) and HPMCAS-LG have similar degrees of succinate substitution ([…], respectively (see Table 7)), but greatly different degrees of acetate substitution (1.41 and 0.47, respectively).

- AUC90 [1]: 3,500 min * μg/mL
- C1200 [1]: 40 µg/mL
- Cmax90 [1]: 40 µg/mL
- C1200 ([2]; dissolved phenytoin at 1200 min): 80 µg/mL
- AUC90 ([2]; dissolved phenytoin, 0-90 min): 6,500 min * μg/mL
- Cmax90 ([2]; dissolved phenytoin, maximum in first 90 min): 120 µg/mL
SMILES: O=C1NC(=O)C(c2ccccc2)(c2ccccc2)N1 [Phenytoin bulk, Phenytoin]
